Measurements taken from patent publication US20240262807A1, “COMPOUND USED AS BCR-ABL INHIBITOR” (CHIA TAI TIANQING PHARMACEUTICAL GROUP CO., LTD., priority 2021, published 2024).

What was measured:
K562 cells = assay: Inhibitory effect of compounds on proliferation of K562 cells (CCK-8); type: cell-based; conditions: Homo sapiens, 72 h with compound, CCK-8, 5% serum
Procedure: K562 cells in logarithmic growth phase and good cell condition were added to a centrifuge tube and centrifuged at 1000 rpm for 5 min in a low speed centrifuge. […] The cells were seeded on a 96-well plate at 100 µL/well using a multi-channel pipette and cultured in a cell incubator at 37° ° C. 5% CO2 and saturated humidity. […] Inhibition rate (%)=(mean value of negative control group−mean value of experimental group)/(mean value of negative control group−mean value of blank group)×100%. A dose-response curve was fitted by four-parameter analysis, with the logarithm of compound concentration serving as abscissa and inhibition rate serving as ordinate, such that IC50 was calculated.

[1] = target: T1, Ba/F3-BCR-ABL1-T315I-C3 cells (Homo sapiens, UniProt P00519, T315I, cells depend on it); assay: Inhibitory effect of compounds on proliferation of BCR-ABL T315I-transfected Ba/F3 cells (CCK-8); type: cell-based; conditions: 72 h with compound, CCK-8, 5% serum, read-out: IC50 (nM) Ba/F3-BCR-ABL1 T315I
T1 construct: fused on or other part: P11274 (Breakpoint cluster region protein)
Procedure: Ba/F3-BCR-ABL1-T315I-C3 cells in logarithmic growth phase and good cell condition were added to a centrifuge tube and centrifuged at 1000 rpm for 5 min in a low speed centrifuge. The supernatant was discarded, and 5 mL of complete medium (RPMI 1640 basic medium+10% FBS) was added using a pipette for cell resuspension. The cells were counted using a cell counter, diluted with complete medium to a cell density of 6×10^4 cells/mL, and an equivalent amount of RPMI 1640 basic medium was added to adjust the serum concentration to 5% and the cell density to 3×10^4 cells/mL for plate seeding. The cells were seeded on a 96-well plate at 100 μL/well using a multi-channel pipette and cultured in a cell incubator at 37° C. 5% CO2 and saturated humidity. After 24 h incubation, compounds were loaded using a nanoliter pipettor, 8 concentrations (1000 nM, 250 nM, 63 nM, 16 nM, 3.9 nM, 0.98 nM, 0.24 nM, 0.061 nM) were set for each compound, and 2 replicate wells were set for each concentration; cells with no compounds added were taken as a negative control, and a plating medium with no cells added was taken as a blank control. After 72 h. […] Inhibition rate (%)=(mean value of negative control group−mean value of experimental group)/(mean value of negative control group−mean value of blank group)×100%. A dose-response curve was fitted by four-parameter analysis, with the logarithm of compound concentration serving as abscissa and inhibition rate serving as ordinate, such that ICso was calculated.

[2] = Evaluation of pharmacokinetics in mice; type: in vivo; conditions: mouse, plasma, po, ICR mice; for bioavailability: ig 10 mg/kg, (intragastric AUC×intravenous dosage)/(intravenous AUC×intragastric dosage)×100%, read-out: Fabs(%) absolute bioavailability; for Cmax / Tmax / half-life / AUC(0-t) / MRT last: ig, 10 mg/kg; for AUC(0-t): read-out: AUC(0-24); for MRT last: read-out: MRT(0-24)
Procedure: ICR mice (purchased from Shanghai Sippe-Bk Lab Animal Co., Ltd.) of 18-22 g were randomized into groups of 9 after 3-5 days of acclimatization and administered with the compounds at a dose of 10 mg/kg by intragastric administration. The animals to be tested (ICR mice) were fasted overnight before administration and food was provided 4 h after administration, and water was freely drunk before and after the experiment and during the experiment. After intragastric administration, about 0.1 mL of blood was collected from the orbit at 0.25 (15 min), 0.5 (30 min), 1, 2, 3, 4, 6, 8, 10, and 24 h (Each mouse was subjected to blood collection at 3-4 time points, with three mice per time point). The blood samples were mixed with EDTA-K2 anticoagulant, transferred to a centrifuge within 30 min, and then centrifuged at 4000 rpm for 10 min at 4° C. to separate the plasma. All the plasma samples were collected and immediately stored at −20° C. for testing.
300 μL of acetonitrile solution containing an internal standard (20 ng/ml diazepam) was added to 30 μL of the plasma sample and standard curve sample. The mixture was shaken and mixed well for 5 min, and centrifuged at 13.000 rpm for 10 min. 70 μL of supernatant was taken and diluted with 70 μL of ultrapure water. After being mixed well, 1 μL of the resulting sample was subjected to LC/MS/MS, and a chromatogram was recorded.
Oral exposure of the compounds was evaluated by in vivo pharmacokinetic experiments in mice. The relevant pharmacokinetic parameters were fitted by using DAS3.2.5 software, where absolute bioavailability Fabs(%)=(intragastric AUC×intravenous dosage)/(intravenous AUC×intragastric dosage)×100%.

SMILES | IC50 (K562 cells) | GI50 [1] | other results
O=C(Nc1ccc(OC(F)(F)Cl)cc1)c1cnc(N2CC3CCC(C2)O3)c(-c2cnn3c2COCC3)c1 [Compound 44] | 4.5 nM | 2.4 nM | 
Cn1cnc(-c2cc(C(=O)Nc3ccc(OC(F)(F)Cl)cc3)cnc2N2CC(F)(F)C2)cc1=O [Compound 72] | 9.2 nM | 6.3 nM | 
O=C(Nc1ccc(OC(F)(F)Cl)cc1)c1ccc(N2CC[C@@H](O)C2)c(-c2cc3c([nH]2)C(=O)NC3)c1 [Compound 116] | 0.82 nM | 0.12 nM | 
O=C(Nc1ccc(OC(F)(F)Cl)cc1)c1cnc(N2CCOCC2)c(-c2cc3c([nH]2)C(=O)NCC3)c1 [Compound 97] | 5.7 nM | 2.3 nM | 
O=C(Nc1ccc(OC(F)(F)Cl)cc1)c1cnc(N2CC3CC(C2)O3)c(-c2cnn3c2COCC3)c1 [Compound 39] | 5.9 nM | 2.4 nM | 
O=C(Nc1ccc(OC(F)(F)Cl)cc1)c1ccc(N2CC(O)C2)c(-c2cc3c([nH]2)C(=O)NC3)c1 [Compound 117] | 1 nM | 0.15 nM | 
CNc1ncc(C(=O)Nc2ccc(OC(F)(F)Cl)cc2)cc1-c1cc2c([nH]1)C(=O)NC2 [Compound 110] | 3.1 nM | 0.44 nM | 
CN(C)c1ncc(C(=O)Nc2ccc(OC(F)(F)Cl)cc2)cc1-c1cc(=O)n(C)cn1 [Compound 61] | 5.6 nM | 3 nM | bioavailability [2]: 95.1%; Cmax [2]: 3200 ng/mL; Tmax [2]: 2 h; half-life [2]: 625 min; AUC(0-t) [2]: 24100 ng·h/mL; MRT last [2]: 4.83 h
CN1CCc2cc(-c3cc(C(=O)Nc4ccc(OC(F)(F)Cl)cc4)cnc3N3CC[C@@H](O)C3)[nH]c2C1=O [Compound 94] | 0.71 nM | 0.88 nM | 
O=C(Nc1ccc(OC(F)(F)Cl)cc1)c1cnc(N2CC[C@@H](O)C2)c(-c2cc3c([nH]2)C(=O)N(C2CC2)C3)c1 [Compound 113] | 0.62 nM | 0.18 nM | 
O=C(Nc1ccc(OC(F)(F)Cl)cc1)c1cnc(N2CCOCC2)c(-c2cnn3c2COCC3)c1 [Compound 43] | 2.2 nM | 4 nM | 
O=C(Nc1ccc(OC(F)(F)Cl)cc1)c1cnc(N2CC[C@@H](O)C2)c(-c2cc3c([nH]2)C(=O)NCC3)c1 [Compound 99] | 3.2 nM | 1.4 nM | 
Cn1ccc(-c2cc(C(=O)Nc3ccc(OC(F)(F)Cl)cc3)cnc2N2C3CCC2COC3)cc1=O [Compound 35] | 16 nM | 13 nM | 
O=C(Nc1ccc(OC(F)(F)Cl)cc1)c1cnc(N2CC(O)C2)c(-c2cc3c([nH]2)C(=O)N(C2CC2)C3)c1 [Compound 114] | 0.56 nM | 0.21 nM | 
O=C(Nc1ccc(OC(F)(F)Cl)cc1)c1cnc(N2CC(O)C2)c(-c2cc3c([nH]2)C(=O)NCC3)c1 [Compound 98] | 4.7 nM | 3.8 nM | 
Cn1ccc(-c2cc(C(=O)Nc3ccc(OC(F)(F)Cl)cc3)cnc2N2CC3CC(C2)O3)cc1=O [Compound 23] | 10 nM | 18 nM | 
CN1Cc2cc(-c3cc(C(=O)Nc4ccc(OC(F)(F)Cl)cc4)cnc3N3CC[C@@H](O)C3)[nH]c2C1=O [Compound 111] | 0.5 nM | 0.16 nM | 
CN(C)c1ncc(C(=O)Nc2ccc(OC(F)(F)Cl)cc2)cc1-c1cc2c([nH]1)C(=O)NC2 [Compound 109] | 0.95 nM | 0.27 nM | 

More lines, main results first:

IC50 (K562 cells) | GI50 [1] | SMILES | other results
3.1 nM | 9.6 nM | Cn1ccc(-c2cc(C(=O)Nc3ccc(OC(F)(F)Cl)cc3)cnc2N2CCCC2)cc1=O [Compound 15] | bioavailability [2]: 106%; Cmax [2]: 2330 ng/mL; Tmax [2]: 2 h; half-life [2]: 127 min; AUC(0-t) [2]: 12300 ng·h/mL; MRT last [2]: 3.64 h
2.6 nM | 1.8 nM | Cn1ncc(-c2cc(C(=O)Nc3ccc(OC(F)(F)Cl)cc3)cnc2N2CCCC2)cc1=O [Compound 47] | 
12 nM | 21 nM | Cn1ccc(-c2cc(C(=O)Nc3ccc(OC(F)(F)Cl)cc3)cnc2N2CC[C@@H](C#N)C2)cc1=O [Compound 31] | 
13 nM | 33 nM | Cn1ccc(-c2cc(C(=O)Nc3ccc(OC(F)(F)Cl)cc3)cnc2N2CC[C@H](F)C2)cc1=O [Compound 17] | 
12 nM | 54 nM | Cn1ccc(-c2cc(C(=O)Nc3ccc(OC(F)(F)Cl)cc3)cnc2N2CC[C@@H](O)C2)cc1=O [Compound 11] | 
20 nM | 7.8 nM | Cn1ccc(-c2cc(C(=O)Nc3ccc(OC(F)(F)Cl)cc3)cnc2N2CC3CCC(C2)O3)cc1=O [Compound 34] | 
4.2 nM | 8.1 nM | Cn1cnc(-c2cc(C(=O)Nc3ccc(OC(F)(F)Cl)cc3)cnc2N2CCCC2)cc1=O [Compound 45] | 
26 nM | 53 nM | Cn1ccc(-c2cc(C(=O)Nc3ccc(OC(F)(F)Cl)cc3)cnc2N2CC(C)(O)C2)cc1=O [Compound 26] | 
8.5 nM | 6.4 nM | Cn1cnc(-c2cc(C(=O)Nc3ccc(OC(F)(F)Cl)cc3)cnc2N2CCOCC2)cc1=O [Compound 54] | 
9.1 nM | 8.1 nM | Cn1cnc(-c2cc(C(=O)Nc3ccc(OC(F)(F)Cl)cc3)cnc2N2CCC(F)(F)CC2)cc1=O [Compound 64] | 
2.1 nM | 4.7 nM | Cn1ccc(-c2cc(C(=O)Nc3ccc(OC(F)(F)Cl)cc3)cnc2N2CC[C@@H](F)C2)cc1=O [Compound 16] | bioavailability [2]: 93.2%; Cmax [2]: 1880 ng/mL; Tmax [2]: 3 h; half-life [2]: 87.6 min; AUC(0-t) [2]: 9690 ng·h/mL; MRT last [2]: 3.33 h
6.3 nM | 12 nM | Cn1ccc(-c2cc(C(=O)Nc3ccc(OC(F)(F)Cl)cc3)cnc2N2CCC3(CC2)COC3)cc1=O [Compound 24] | 
2.2 nM | 2.2 nM | C[C@@H]1CCN1c1ncc(C(=O)Nc2ccc(OC(F)(F)Cl)cc2)cc1-c1cc(=O)n(C)cn1 [Compound 76] | 
16 nM | 28 nM | Cn1ccc(-c2cc(C(=O)Nc3ccc(OC(F)(F)Cl)cc3)cnc2N2CC3(COC3)C2)cc1=O [Compound 5] | 
6.8 nM | 12 nM | Cn1ccc(-c2cc(C(=O)Nc3ccc(OC(F)(F)Cl)cc3)cnc2N2CCCO2)cc1=O [Compound 29] | 
12 nM | 6.1 nM | Cn1cnc(-c2cc(C(=O)Nc3ccc(OC(F)(F)Cl)cc3)cnc2N2CCSCC2)cc1=O [Compound 67] | 
24 nM | 14 nM | Cn1cccc(-c2cc(C(=O)Nc3ccc(OC(F)(F)Cl)cc3)cnc2N2CCOCC2)c1=O [Compound 86] | 
4.9 nM | 8.1 nM | Cn1ccc(-c2cc(C(=O)Nc3ccc(OC(F)(F)Cl)cc3)cnc2N2CC[C@@H](Cl)C2)cc1=O [Compound 18] | 
9 nM | 20 nM | Cn1ccc(-c2cc(C(=O)Nc3ccc(OC(F)(F)Cl)cc3)cnc2N2CC(C#N)C2)cc1=O [Compound 25] | 
52 nM | 23 nM | O=C(Nc1ccc(OC(F)(F)Cl)cc1)c1cnc(N2CCOCC2)c(-c2ccn(CCO)c(=O)c2)c1 [Compound 8] | 
6.5 nM | 11 nM | Cn1ccc(-c2cc(C(=O)Nc3ccc(OC(F)(F)Cl)cc3)cnc2N2CC3CC3C2)cc1=O (centres unmarked) [Compound 28] | 
6.6 nM | 4.1 nM | Cn1ncc(-c2cc(C(=O)Nc3ccc(OC(F)(F)Cl)cc3)cnc2N2CC3CCC(C2)O3)cc1=O [Compound 91] | 
